The values that follow come from PubChem BioAssay (NCI).

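Five compound concentrations were applied to cells in 96-well plates for 48 hours; endpoints were derived by simple linear interpolation of the resulting dose-response curve. GI50: concentration for 50% inhibition of growth. TGI denotes the concentration required for complete inhibition of growth.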 A value given as a limit tells only on which side of the number the result lay.

Holding throughout (test): NCI tumour cell line growth inhibition, 48 h
Assay [1] relates to KM12 colon.
Assay [2] relates to A549 NSCLC.
In assay [3] the test system is SNB-19 CNS.
For assay [4], the system named is U251 CNS.
In assay [5] the test system is HT29 colon.
Assay [6] has as its system NCI-H226 lung.
Assay [7] concerns HCT-15 colon.
Assay [8] has as its system SNB-75 CNS.
Assay [9] deals with UACC-62 melanoma.
Assay [10] has as its system RXF 393 renal.

As for `CC(C)N(C(=O)C12C3C4C1C1C4(C#N)C3C12C(=O)O)C(C)C` (centres undefined), the TGI in [1], in assay [2], in [3], in assay [4], in assay [5] and in assay [6] was more than 100 µM in each case. In addition, the TGI in [7] was more than 68.2 µM; in assay [8] it was more than 100 µM; in assay [9] it was more than 100 µM.
On to `CC(C)(C)O/N=C/c1cc(NC(=S)c2ccccc2)ccc1Cl`, for which the TGI in assay [1] amounted to 25.7 µM; in [2], 35.1 µM; in assay [3] it was 63.8 µM; in assay [10] it was 27.9 µM; in assay [4], 45.5 µM; in [5], 29.2 µM. Further, the TGI in assay [6] came out at 34.7 µM; in assay [7], 32.1 µM; in assay [9] it was 32.7 µM.
For `CCOC(=O)c1cn(C)c2c(OC)c3ccccc3c(OC)c2c1=O`, the GI50 was 19.7 µM in assay [1]; 36.4 µM in assay [2]; 36.6 µM in assay [3]; 20.3 µM in [4]; 64.3 µM in assay [5]; 23.8 µM in assay [6]. Moreover, the GI50 in [7] was 29.6 µM; in assay [8] it was more than 100 µM; in assay [9], 19.5 µM. Moreover, the TGI in assay [1] was 48.3 µM; in assay [2] it was more than 100 µM; in assay [3], more than 100 µM; in assay [4] it was 55.3 µM; in assay [5], more than 100 µM; in assay [6] it was 57.1 µM. Moreover, the TGI in assay [7] was more than 100 µM; in [8] it was more than 100 µM; in [9], 36.4 µM.
Take `Cc1ccccc1Nc1cc(O)c2c(=O)cc(-c3ccccc3)oc2c1`: the GI50 in [1] is 2.38 µM; in [2], 2.11 µM; in [3] it was 2.98 µM; in assay [10], 2.45 µM; in assay [4], 3.04 µM; in assay [5] it was 3.25 µM. Further, the GI50 was 4.11 µM in [6], 0.678 µM in [7] and 2.89 µM in [9]. Moreover, the TGI is more than 100 µM in assay [1]; more than 100 µM in assay [2]; more than 100 µM in assay [3]; 9.56 µM in assay [10]; more than 100 µM in assay [4]; more than 100 µM in assay [5]. Further, the TGI in assay [6], in [7] and in [9] was more than 100 µM throughout.
Regarding `CC(C)c1ccc(Cc2ccc(C(C)C)c(NC(=O)C(=O)Cc3cnc4ccccc4n3)c2C(C)C)c(C(C)C)c1NC(=O)C(=O)Cc1cnc2ccccc2n1`, the TGI in assay [1], in assay [2], in assay [3], in assay [4], in assay [7] and in assay [9] was more than 100 µM in each case.
For the molecule `N#CN1CC[C@H](C(=O)Nc2ncc(-c3ccccc3)s2)C1`, the GI50 in assay [1] is 0.592 µM; in [2] it was 1.9 µM; in assay [3], 1.11 µM; in [4] it was 0.545 µM; in [5], 0.313 µM; in [6] it was 0.693 µM. Also, the GI50 in assay [7] is 0.312 µM; in assay [8] it was 0.374 µM; in assay [9] it was 0.371 µM. Besides, the TGI in assay [1] was 2.78 µM; in [2] it was 8.61 µM; in [3], 11.3 µM; in [4], 5.15 µM; in assay [5], 1.82 µM; in assay [6], 4.19 µM. The TGI was determined as 3.65 µM in assay [7], 2.69 µM in assay [8] and 2.18 µM in assay [9].
Consider `N#Cc1ccccc1Sc1ccccc1N`, for which the TGI in assay [1], in assay [2], in assay [3], in assay [10], in assay [4] and in [5] was more than 100 µM in each case. In addition, the values for the TGI in assay [6] and in [9] were 71.6 µM and more than 100 µM, respectively.
As for `C#Cc1cccc(NC(=O)/C=C\C(=O)O)c1`, the TGI in assay [1], in assay [2], in [3], in assay [4], in assay [5] and in assay [6] was more than 100 µM each time. Besides, the TGI in assay [8] and in [9] was more than 100 µM in each case.
For `C[n+]1cn(CC(=O)c2ccccc2)c(C(N)=O)c1N`, the TGI in assay [1], in assay [2], in [3], in assay [4], in assay [5] and in assay [6] was more than 100 µM throughout. The TGI in [7], in assay [8] and in [9] was more than 100 µM throughout.
In the case of `N#CC(C(=O)Nc1ccccc1)C1=C(Cl)C(=O)c2ccccc2C1=O` (centres undefined), the TGI in [1] came to 50.7 µM; in assay [2], 43.4 µM; in assay [3], 36.3 µM; in assay [10], 31.4 µM; in [4] it was 61.5 µM; in [5], 67.5 µM. The TGI in [6] turned out to be 30.8 µM; in assay [7], 32.6 µM; in assay [9] it was 33.3 µM.
Consider `COc1ccc(N(CC(=O)O)N=O)cc1`, for which the TGI in assay [1], in [2], in [3], in assay [10], in [4] and in [5] was more than 100 µM each time. Further, the TGI in assay [6], in [7] and in assay [9] was more than 100 µM throughout.
As to `O=C(O)c1ccccc1NCn1nc(-c2ccccc2O)oc1=S`, the GI50 in assay [1] was more than 100 µM; in assay [2] it was 51 µM; in assay [3] it was more than 100 µM; in assay [10], 68.9 µM; in assay [4] it was 48.3 µM; in [5] it was 34.9 µM. In addition, the values for the GI50 in assay [6], in [7] and in [9] were 86.6 µM, 24.6 µM and 33.7 µM, respectively. The TGI in assay [1], in assay [2], in [3], in assay [10], in [4] and in assay [5] was more than 100 µM in each case. The results for the TGI in assay [6], in assay [7] and in assay [9] were more than 100 µM, 65.3 µM and 92.3 µM, respectively.
